Paper PMC11901438, “Synthesis and Evaluation of Boron-Containing Heterocyclic Compounds with Antimicrobial and Anticancer Activities” (Molecules, 2025)
pIC50: −log10 of the molar value. ≈ marks a conversion by molar mass, not a printed value.

Key:
[1] = tested on: M. tuberculosis H37RV ATCC 27294 strain; assay: Resazurin microtiter assay (REMA), MIC90; assay type: cell-based; conditions: Mycobacterium tuberculosis, cut-off 25 µM
T. rubrum ATCC 28189 = assay: Antifungal susceptibility test (CLSI M38-A2 microdilution, resazurin), MIC90; conditions: Trichophyton rubrum, ATCC28189, read-out: T. rubrum ATCC 28189 MIC90
[2] = tested on: T. mentagrophytes (ATCC 11481); assay: as above; conditions: Trichophyton mentagrophytes, ATCC11481|ATCC28189, read-out: T. mentagrophytes ATCC 28189 MIC90
SCC-25 cells = assay: MTT anticancer assay in SCC-25 cells; assay type: cell-based; conditions: for pIC50: MTT, 24 h; for SI (selectivity index): NOK-si versus SCC-25
Description: (§1) Boronic acid and benzoboroxole derivatives have been identified as potential anticancer agents. To investigate their efficacy against head and neck cancer cell lines, SCC-25 cells were utilized in this study, as a model for oral squamous cell carcinoma. Additionally, cytotoxicity was performed in normal oral keratinocytes NOK-si cells to evaluate the selective index of the compounds. […] The selectivity of the compounds is quantified by the selectivity index (SI), with those with an SI greater than 3.0 being considered promising for further evaluation, in accordance with internal protocols.
(§2) The SCC-25 was purchased from Rio de Janeiro Cell Bank, and NOK-si was kindly provided by Prof. Carlos Rossa from the School of Dentistry—UNESP. The cell lines were initially thawed and cultured in 25 cm^2 cell culture flasks. Cell growth was monitored using a microscope, and the culture medium was changed periodically. Upon reaching confluency, cell dissociation was achieved by adding 5 mL of trypsin (Sigma-Aldrich, St Louis, MO, USA) and incubating the bottles in a CO2 incubator for 10 min. Subsequently, the cells were transferred to 15 mL Falcon tubes and centrifuged at 2000 rpm for 10 min. Cell counting was performed using a Countess II FL automated cell counter (ThermoFischer, Waltham, MA, USA). The cells were seeded at a density of 30,000 cells per well in 96-well plates. The plates were then incubated at 37 °C in 5% CO2 for 24 h. Following this, test compounds were incubated for another 24 h at 10 different concentrations: 50, 25, 12.5, 6.25, 3.12, 1.56, 0.78, 0.39, 0.19, and 0.097 µg/mL. After the specified time, MTT reagent (3 mg/mL) (Sigma-Aldrich, St Louis, MO, USA) dissolved in phenol-free RPMI 1640 was added and incubated for 4 h. The formed MTT crystals were solubilized using 2-propanol P.A (Sigma-Aldrich, St Louis, MO, USA) with agitation. Absorbance was read at 562 nm using an EZ Read 400 microplate reader (Biochrom, Cambridge, UK) and ADAP 2.0 Biochrom software (version 2.0). IC50 values and graphs were calculated by Dr. Paula Aboud Barbugli using Excel and Prism software (version 10.4.1). The MTT assay results were evaluated for normality using the Shapiro–Wilk test, followed by one-way ANOVA with Tukey’s post hoc test at a significance level of 5%.

NOK-si cells = assay: MTT cytotoxicity assay in normal oral keratinocytes NOK-si; assay type: cell-based; conditions: Keratinocyte, 24 h, read-out: NOK-si IC50
Description: as §1, §2

Compound | MIC90 [1] [µM] | MIC90 (T. rubrum ATCC 28189) [µM] | MIC90 [2] [µM] | pIC50 (SCC-25 cells; Homo sapiens, SCC-25, 24 h) | pIC50 (SCC-25 cells) | SI (selectivity index) (SCC-25 cells) | CC50 (NOK-si cells) [µM] | killing effect in SCC-25 cells (SCC-25 cells)
O=C(Nc1ccc(N2CCN(c3ccccn3)CC2)c(F)c1)c1cccc(B(O)O)c1 [Compound 29, {3-({3-Fluoro-4-[4-(pyridin-2-yl)piperazin-1-yl]phenyl}carbamoyl)phenyl}boronic acid] | > 25 | 297 (≈ 125 µg/mL) | 297 (≈ 125 µg/mL) | 4.10 | 3.93 | <1 | 110 | 
O=C(Nc1ccc(N2CCN(c3ccc(F)cc3)CC2)c(F)c1)c1cccc(B(O)O)c1 [Compound 31, [3-({3-Fluoro-4-[4-(4-fluorophenyl)piperazin-1-yl]phenyl}carbamoyl)phenyl]boronic acid] | > 25 | 286 (≈ 125 µg/mL) | 286 (≈ 125 µg/mL) | 4.23 |  | 3.73 | > 221 | 
O=C(Nc1ccc(N2CCN(c3ncccn3)CC2)c(F)c1)c1ccc(B(O)O)cc1 [Compound 36, [4-({3-Fluoro-4-[4-(pyrimidin-2-yl)piperazin-1-yl]phenyl}carbamoyl)phenyl]boronic acid] | > 25 | 297 (≈ 125 µg/mL) | 297 (≈ 125 µg/mL) | 3.87 |  | 1.00 | 134 | 
O=C(Nc1ccc(N2CCSCC2)c(F)c1)c1ccc(B(O)O)cc1 [Compound 38, {4-[(3-Fluoro-4-thiomorpholinophenyl)carbamoyl]phenyl}boronic acid] | > 25 | 347 (≈ 125 µg/mL) | 347 (≈ 125 µg/mL) |  |  | <1 | 149 | 
O=C(Nc1ccc(N2CCSCC2)c(F)c1)c1ccc2c(c1)COB2O [Compound 45, N-(3-fluoro-4-thiomorpholinophenyl)-1-hydroxy-1,3-dihydrobenzo[c][1,2]oxaborole-5-carboxamide] | > 25 | 336 (≈ 125 µg/mL) | 336 (≈ 125 µg/mL) | 4.08 |  | <1 | 65.8 | 
NNC(=O)c1ccncc1 [Isoniazide, reference compound] | 0.11 (≈ 0.0151 µg/mL) |  |  |  |  |  |  | 
O=c1[nH]cc(F)c(=O)[nH]1 [5-fluorouracil, reference compound] |  |  |  | 2.74 |  |  |  | 
O=C(Nc1ccc(N2CCN(c3ncccn3)CC2)c(F)c1)c1cccc(B(O)O)c1 [Compound 30, [3-({3-Fluoro-4-[4-(pyrimidin-2-yl)piperazin-1-yl]phenyl}carbamoyl)phenyl]boronic acid] | > 25 | 297 (≈ 125 µg/mL) | 297 (≈ 125 µg/mL) |  |  | <1 |  | 
O=C(Nc1ccc(N2CCSCC2)c(F)c1)c1cccc(B(O)O)c1 [Compound 32, {3-[(3-Fluoro-4-thiomorpholinophenyl)carbamoyl]phenyl}boronic acid] | > 25 | 347 (≈ 125 µg/mL) | 347 (≈ 125 µg/mL) |  |  | <1 |  | 
O=C(Nc1ccc(N2CCN(c3ccccn3)CC2)c(F)c1)c1ccc(B(O)O)cc1 [Compound 35, [4-({3-Fluoro-4-[4-(pyridin-2-yl)piperazin-1-yl]phenyl}carbamoyl)phenyl]boronic acid] | > 25 | 297 (≈ 125 µg/mL) | 297 (≈ 125 µg/mL) | 4.35 | 4.34 | 3.37 | 221 | 
O=C(Nc1ccc(N2CCOCC2)c(F)c1)c1cccc(B(O)O)c1 [Compound 33, {3-[(3-Fluoro-4-morpholinophenyl)carbamoyl]phenyl}boronic acid] | > 25 | 363 (≈ 125 µg/mL) | 363 (≈ 125 µg/mL) |  |  | <1 |  | 
O=C(Nc1ccc(N2CCN(c3ccccn3)CC2)c(F)c1)c1ccc2c(c1)COB2O [Compound 44, N-{3-fluoro-4-[4-(pyridin-2-yl)piperazin-1-yl]phenyl}-1-hydroxy-1,3-dihydrobenzo[c][1,2]oxaborole-5-carboxamide] | > 25 | 289 (≈ 125 µg/mL) | 146 (≈ 63.1 µg/mL) |  |  | <1 |  | absent killing effect
CN(C/C=C/C#CC(C)(C)C)Cc1cccc2ccccc12 [Terbinafine, reference compound] |  | 0.0001 (≈ 2.91e-05 µg/mL) | 2.5e-05 (≈ 7.29e-06 µg/mL) |  |  |  |  | 
